Test results from ChEMBL document CHEMBL5625232, “Development of selective class I protein arginine methyltransferase inhibitors through fragment-based drug design approach” (Eur J Med Chem, 2023).
≈ marks a conversion by molar mass, not a printed value. Calls of active or inactive are those of the source. The rule behind the calls is not given here.

Legend:
[1] = biological target: T1, Histone-lysine N-methyltransferase SUV39H1 (Homo sapiens) (UniProt O43463); experiment: Displacement of 3H-SAM from SUV39H1 (unknown origin) using biotinylated-histone H3 peptide as substrate at 10 uM incubated for 45 mins by SPA assay relative to control
T1 sequence (whole entry): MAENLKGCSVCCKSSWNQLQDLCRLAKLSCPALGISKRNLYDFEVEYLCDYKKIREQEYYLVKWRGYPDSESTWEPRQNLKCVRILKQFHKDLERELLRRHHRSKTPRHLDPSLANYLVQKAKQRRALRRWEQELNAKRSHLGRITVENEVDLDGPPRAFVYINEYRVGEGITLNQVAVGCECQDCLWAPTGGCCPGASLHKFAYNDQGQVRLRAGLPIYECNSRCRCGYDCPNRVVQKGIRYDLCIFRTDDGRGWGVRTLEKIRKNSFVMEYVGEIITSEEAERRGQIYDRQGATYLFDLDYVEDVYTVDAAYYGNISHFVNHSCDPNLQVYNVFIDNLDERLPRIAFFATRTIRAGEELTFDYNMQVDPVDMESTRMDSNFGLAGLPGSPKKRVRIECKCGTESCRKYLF

[2] = biological target: T2, Protein arginine N-methyltransferase 1 (Homo sapiens, UniProt Q99873); experiment: Displacement of 3H-SAM from PRMT1 (unknown origin) using biotinylated-histone H4 peptide as substrate upto 200 uM incubated for 45 mins by SPA assay
Target sequence in this assay (Q99873 whole entry, looked up): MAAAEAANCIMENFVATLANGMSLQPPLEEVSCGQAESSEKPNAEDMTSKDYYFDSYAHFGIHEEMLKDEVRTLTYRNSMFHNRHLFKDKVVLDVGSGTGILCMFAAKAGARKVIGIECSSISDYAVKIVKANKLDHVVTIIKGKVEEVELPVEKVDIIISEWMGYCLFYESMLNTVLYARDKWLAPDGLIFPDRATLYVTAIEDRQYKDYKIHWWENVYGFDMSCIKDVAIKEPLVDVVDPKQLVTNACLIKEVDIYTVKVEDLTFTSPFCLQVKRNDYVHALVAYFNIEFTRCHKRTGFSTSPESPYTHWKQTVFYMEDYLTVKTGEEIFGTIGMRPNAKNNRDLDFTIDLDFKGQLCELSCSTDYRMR

[3] = biological target: T3, Histone-lysine N-methyltransferase SMYD3 (Homo sapiens) (UniProt Q9H7B4); experiment: Displacement of 3H-SAM from SMYD3 (unknown origin) using biotinylated-MAP3K2 as substrate at 10 uM incubated for 45 mins by SPA assay relative to control
T3 sequence (whole entry): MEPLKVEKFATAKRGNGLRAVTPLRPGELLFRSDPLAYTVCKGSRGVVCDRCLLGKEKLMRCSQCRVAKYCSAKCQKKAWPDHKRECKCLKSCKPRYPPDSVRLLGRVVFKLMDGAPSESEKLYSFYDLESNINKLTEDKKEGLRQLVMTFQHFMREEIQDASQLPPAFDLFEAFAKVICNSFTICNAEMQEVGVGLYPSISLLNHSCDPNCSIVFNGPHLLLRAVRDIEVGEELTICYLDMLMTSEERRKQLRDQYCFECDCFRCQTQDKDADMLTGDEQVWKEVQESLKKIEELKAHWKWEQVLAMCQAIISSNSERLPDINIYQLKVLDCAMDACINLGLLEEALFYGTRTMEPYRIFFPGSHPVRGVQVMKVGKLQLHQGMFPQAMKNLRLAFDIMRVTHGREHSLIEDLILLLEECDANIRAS

[4] = biological target: T4, Histone-arginine methyltransferase CARM1 (Homo sapiens, UniProt Q86X55); experiment: Displacement of 3H-SAM from human PRMT4 in presence of substrate by SPA assay
T4 sequence (Q86X55 whole entry): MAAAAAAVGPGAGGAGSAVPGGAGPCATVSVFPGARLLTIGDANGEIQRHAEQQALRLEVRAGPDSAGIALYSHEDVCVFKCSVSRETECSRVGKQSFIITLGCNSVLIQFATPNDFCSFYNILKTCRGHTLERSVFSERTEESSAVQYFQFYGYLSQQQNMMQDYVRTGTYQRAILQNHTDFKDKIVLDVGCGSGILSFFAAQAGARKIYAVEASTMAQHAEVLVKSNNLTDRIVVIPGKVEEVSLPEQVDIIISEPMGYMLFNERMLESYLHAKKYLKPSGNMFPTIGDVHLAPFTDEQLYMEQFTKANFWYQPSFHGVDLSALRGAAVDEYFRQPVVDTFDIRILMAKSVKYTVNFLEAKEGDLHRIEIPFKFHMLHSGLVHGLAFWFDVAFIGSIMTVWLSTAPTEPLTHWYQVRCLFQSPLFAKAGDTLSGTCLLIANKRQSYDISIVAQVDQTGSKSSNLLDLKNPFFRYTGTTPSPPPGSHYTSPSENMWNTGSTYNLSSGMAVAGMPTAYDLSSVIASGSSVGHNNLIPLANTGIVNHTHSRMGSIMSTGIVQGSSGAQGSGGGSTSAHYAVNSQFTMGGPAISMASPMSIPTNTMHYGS

[5] = biological target: T5, Protein arginine N-methyltransferase 8 (Homo sapiens, UniProt Q9NR22); experiment: Displacement of 3H-SAM from human PRMT8 in presence of substrate by SPA assay
[6] = biological target: T2, Protein arginine N-methyltransferase 1; experiment: Displacement of 3H-SAM from PRMT1 (unknown origin) using biotinylated-histone H4 peptide as substrate incubated for 45 mins by SPA assay
Target sequence in this assay (Q99873 whole entry): as the sequence (Q99873 whole entry, looked up) above

[7] = biological target: T6, Histone-lysine N-methyltransferase SUV39H1 (Homo sapiens, UniProt O43463); experiment: Displacement of 3H-SAM from SUV39H1 (unknown origin) using biotinylated-histone H3 peptide as substrate incubated for 45 mins by SPA assay
T6 sequence (O43463 whole entry): T1 sequence (whole entry)

[8] = biological target: T7, Histone-lysine N-methyltransferase SMYD3 (Homo sapiens, UniProt Q9H7B4); experiment: Displacement of 3H-SAM from SMYD3 (unknown origin) using biotinylated-MAP3K2 as substrate incubated for 45 mins by SPA assay
T7 sequence (Q9H7B4 whole entry): T3 sequence (whole entry)

[9] = biological target: Protein arginine N-methyltransferase 6 (Homo sapiens, UniProt Q96LA8); experiment: Inhibition of PRMT6 (unknown origin)
[10] = biological target: T5, Protein arginine N-methyltransferase 8; experiment: Inhibition of PRMT8 (unknown origin)
[11] = biological target: T2, Protein arginine N-methyltransferase 1; experiment: Inhibition of PRMT1 (unknown origin)
Target sequence in this assay (Q99873 whole entry): as the sequence (Q99873 whole entry, looked up) above

[12] = Lipophilicity, log D of compound in 1-octanol at pH 7.4 incubated for 4 hrs by HPLC-UV analysis; assay type: physicochemical; details: 1-octanol/aqueous phase
[13] = biological target: T3, Histone-lysine N-methyltransferase SMYD3 (Homo sapiens); experiment: Displacement of 3H-SAM from SMYD3 (unknown origin) using biotinylated-MAP3K2 as substrate upto 200 uM incubated for 45 mins by SPA assay
[14] = biological target: T1, Histone-lysine N-methyltransferase SUV39H1 (Homo sapiens); experiment: Displacement of 3H-SAM from SUV39H1 (unknown origin) using biotinylated-histone H3 peptide as substrate upto 200 uM incubated for 45 mins by SPA assay
[15] = biological target: Histone-lysine N-methyltransferase, H3 lysine-79 specific (Homo sapiens) (UniProt Q8TEK3); experiment: Displacement of 3H-SAM from DOT1L (unknown origin) at 30 uM incubated for 1 hr in presence of substrate by SPA assay relative to control
[16] = biological target: T3, Histone-lysine N-methyltransferase SMYD3 (Homo sapiens); experiment: Displacement of 3H-SAM from SMYD3 (unknown origin) using biotinylated-MAP3K2 as substrate at 30 uM incubated for 45 mins by SPA assay relative to control
[17] = biological target: T1, Histone-lysine N-methyltransferase SUV39H1 (Homo sapiens); experiment: Displacement of 3H-SAM from SUV39H1 (unknown origin) using biotinylated-histone H3 peptide as substrate at 30 uM incubated for 45 mins by SPA assay relative to control
[18] = biological target: T2, Protein arginine N-methyltransferase 1; experiment: Displacement of 3H-SAM from PRMT1 (unknown origin) using biotinylated-histone H4 peptide as substrate at 30 uM incubated for 45 mins by SPA assay relative to control
Target sequence in this assay (Q99873 whole entry, looked up): as the sequence (Q99873 whole entry, looked up) above

[19] = Aqueous solubility of compound at pH 7.4 incubated for 24 hrs by HPLC-UV spectroscopy; assay type: physicochemical; details: aqueous medium
[20] = biological target: T4, Histone-arginine methyltransferase CARM1; experiment: Inhibition of PRMT4 (unknown origin)

Chain of Histone-lysine N-methyltransferase, H3 lysine-79 specific (Homo sapiens) (Q8TEK3 whole entry, looked up): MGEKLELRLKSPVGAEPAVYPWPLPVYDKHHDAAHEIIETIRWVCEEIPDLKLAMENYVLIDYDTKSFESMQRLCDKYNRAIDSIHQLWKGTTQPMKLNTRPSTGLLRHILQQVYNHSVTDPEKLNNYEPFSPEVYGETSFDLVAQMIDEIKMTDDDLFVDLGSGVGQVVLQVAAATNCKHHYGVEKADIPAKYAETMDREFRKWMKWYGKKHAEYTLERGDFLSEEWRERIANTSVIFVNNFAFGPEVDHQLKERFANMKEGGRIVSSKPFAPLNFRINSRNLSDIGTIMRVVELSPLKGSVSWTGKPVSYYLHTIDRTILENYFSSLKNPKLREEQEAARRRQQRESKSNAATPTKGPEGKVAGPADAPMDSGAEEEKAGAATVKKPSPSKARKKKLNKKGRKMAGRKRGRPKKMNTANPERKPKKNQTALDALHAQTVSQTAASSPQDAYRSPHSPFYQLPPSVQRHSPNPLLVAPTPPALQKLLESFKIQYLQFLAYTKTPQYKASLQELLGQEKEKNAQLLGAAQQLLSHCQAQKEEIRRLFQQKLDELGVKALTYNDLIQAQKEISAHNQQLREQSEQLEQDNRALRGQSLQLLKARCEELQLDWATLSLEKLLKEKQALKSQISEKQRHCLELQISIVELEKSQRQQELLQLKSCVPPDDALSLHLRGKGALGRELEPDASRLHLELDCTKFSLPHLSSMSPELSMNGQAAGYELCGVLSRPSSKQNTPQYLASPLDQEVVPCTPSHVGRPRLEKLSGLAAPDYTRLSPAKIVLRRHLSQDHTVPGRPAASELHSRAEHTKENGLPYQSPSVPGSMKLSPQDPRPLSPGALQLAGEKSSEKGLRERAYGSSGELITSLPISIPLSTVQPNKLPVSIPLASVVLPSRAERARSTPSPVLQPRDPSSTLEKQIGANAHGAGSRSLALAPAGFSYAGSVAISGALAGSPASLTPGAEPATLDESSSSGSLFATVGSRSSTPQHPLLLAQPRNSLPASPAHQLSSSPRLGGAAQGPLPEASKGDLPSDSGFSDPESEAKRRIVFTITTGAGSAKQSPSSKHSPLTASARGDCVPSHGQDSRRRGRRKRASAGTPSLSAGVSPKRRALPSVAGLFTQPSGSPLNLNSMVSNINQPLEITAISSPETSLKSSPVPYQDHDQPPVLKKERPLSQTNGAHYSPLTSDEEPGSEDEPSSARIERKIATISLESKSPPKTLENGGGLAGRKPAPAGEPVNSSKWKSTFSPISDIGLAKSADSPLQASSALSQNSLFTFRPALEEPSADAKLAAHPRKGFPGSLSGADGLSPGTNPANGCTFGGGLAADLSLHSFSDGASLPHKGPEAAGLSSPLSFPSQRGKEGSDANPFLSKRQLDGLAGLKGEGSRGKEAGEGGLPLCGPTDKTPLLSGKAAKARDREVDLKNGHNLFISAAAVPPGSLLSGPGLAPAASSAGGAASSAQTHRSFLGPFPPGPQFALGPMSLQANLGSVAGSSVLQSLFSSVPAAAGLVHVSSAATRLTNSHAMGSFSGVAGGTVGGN
T5 sequence (Q9NR22 whole entry): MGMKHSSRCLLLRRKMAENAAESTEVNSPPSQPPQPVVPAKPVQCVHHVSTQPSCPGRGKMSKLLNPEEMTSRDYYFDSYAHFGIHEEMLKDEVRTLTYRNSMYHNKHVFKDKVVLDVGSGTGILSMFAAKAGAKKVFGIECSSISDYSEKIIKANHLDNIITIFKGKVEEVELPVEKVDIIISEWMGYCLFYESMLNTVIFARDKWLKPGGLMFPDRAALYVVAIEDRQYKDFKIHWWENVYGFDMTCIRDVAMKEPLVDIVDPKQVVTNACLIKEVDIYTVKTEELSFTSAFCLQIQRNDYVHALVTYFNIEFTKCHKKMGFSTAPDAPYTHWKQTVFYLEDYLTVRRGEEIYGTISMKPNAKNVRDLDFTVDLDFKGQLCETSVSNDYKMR
Chain of Protein arginine N-methyltransferase 6 (Q96LA8 whole entry): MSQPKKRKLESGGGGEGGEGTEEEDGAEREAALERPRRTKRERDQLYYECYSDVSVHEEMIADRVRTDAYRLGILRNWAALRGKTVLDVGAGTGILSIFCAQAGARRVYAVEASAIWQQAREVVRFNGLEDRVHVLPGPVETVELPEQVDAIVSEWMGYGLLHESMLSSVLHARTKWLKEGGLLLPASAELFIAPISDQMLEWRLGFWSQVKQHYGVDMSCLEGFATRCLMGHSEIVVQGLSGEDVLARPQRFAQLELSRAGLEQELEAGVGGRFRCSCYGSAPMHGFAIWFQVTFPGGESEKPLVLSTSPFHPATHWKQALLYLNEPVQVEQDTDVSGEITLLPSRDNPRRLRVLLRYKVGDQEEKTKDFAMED

**Q.** For `CN1CCC(NC(=O)c2ccc3c(Nc4ccc(CN)cc4)ncnc3c2)C1` (configuration not stated), which inhibition [1] is on record?
**A.** < 25%

**Q.** What about the inhibition [2] of the same compound?
**A.** inactive

**Q.** What about the inhibition [3] of the same compound?
**A.** < 25%

**Q.** With `CC(C)Oc1ccc(-c2c[nH]cc2CN(C)CCN)cc1` as the compound, how does the IC50 [4] read?
**A.** 45 µM

**Q.** What about the IC50 [5] of the same compound?
**A.** 9 µM

**Q.** With `CNCCCNC(=O)c1ccc2c(Nc3ccc(CN)cc3)ncnc2c1` as the compound, how does the inhibition [1] read?
**A.** < 25%

**Q.** What about the inhibition [3] of the same compound?
**A.** < 25%

**Q.** With `NCc1ccc(Nc2ncnc3cc(C(=O)N4CCC(N)C4)ccc23)cc1` (configuration not stated) as the compound, how does the IC50 [6] read?
**A.** > 100 µM

**Q.** What about the IC50 [7] of the same compound?
**A.** > 100 µM

**Q.** What about the IC50 [8] of the same compound?
**A.** > 200 µM

**Q.** What does the source list for `CNCCNCc1c[nH]nc1-c1ccc(O[C@H]2C[C@H](OCCC3CCCCC3)C2)cc1`?
**A.** IC50 [9]: 0.01 µM; IC50 [10]: 0.223 µM; IC50 [11]: 0.119 µM

**Q.** For `COCCc1ccc(OCC(O)CNC(C)C)cc1` (configuration not stated) [METOPROLOL], which logD at 4 h [12] is on record?
**A.** -0.28

**Q.** Which results are given for `NC1CCN(c2ncnc3cc(C(=O)NC4CCCC4)ccc23)CC1`?
**A.** inhibition [13]: inactive; inhibition [2]: inactive; inhibition [14]: inactive

**Q.** What does the source list for `NC1CCN(c2ncnc3cc(C(=O)NCCN4CCNCC4)ccc23)CC1`?
**A.** IC50 [6]: > 100 µM; IC50 [7]: > 200 µM; IC50 [8]: > 200 µM

**Q.** For `CN(C)CCN1CCC(NC(=O)c2ccc3c(Nc4ccc(CN)cc4)ncnc3c2)C1` (configuration not stated), which IC50 [7] is on record?
**A.** 16 µM

**Q.** And the inhibition [15]?
**A.** 10%

**Q.** And the inhibition [16]?
**A.** < 25%

**Q.** Which results are given for `CN1CCN(CCNC(=O)c2ccc3c(Nc4ccc(CN)cc4)ncnc3c2)CC1`?
**A.** inhibition [17]: < 25%; inhibition [18]: < 25%; inhibition [15]: 17%; inhibition [16]: < 25%

**Q.** Which results are given for `NCc1ccc(Nc2ncnc3cc(C(=O)NCCN4CCCC4)ccc23)cc1`?
**A.** inhibition [18]: < 25%; IC50 [7]: 14 µM; inhibition [15]: 9%; inhibition [16]: < 25%

**Q.** What does the source list for `CN(C)CCNC(=O)c1ccc2c(Nc3ccc(CN)cc3)ncnc2c1`?
**A.** inhibition [18]: < 25%; IC50 [7]: 22 µM; inhibition [15]: 5%; inhibition [16]: < 25%

**Q.** Which results are given for `NCc1ccc(Nc2ncnc3cc(C(=O)NCCN4CCNCC4)ccc23)cc1`?
**A.** IC50 [7]: 35 µM; IC50 [8]: 74 µM

**Q.** Which results are given for `NCc1ccc(Nc2ncnc3cc(C(=O)NC4CCNCC4)ccc23)cc1`?
**A.** IC50 [6]: > 200 µM; IC50 [7]: > 200 µM; IC50 [8]: > 100 µM

**Q.** What does the source list for `CNCCN1CCC(NC(=O)c2ccc3c(Nc4ccc(CNC)cc4)ncnc3c2)C1` (configuration not stated)?
**A.** inhibition [1]: < 25%; inhibition [3]: < 25%; IC50 [6]: 2 µM

**Q.** With `CCCSc1ccc2nc(NC(=O)OC)[nH]c2c1` [ALBENDAZOLE] as the compound, how does the solubility at 24 h [19] read?
**A.** 2.2 µg/mL (≈ 8.29 µM)

**Q.** What does the source list for `NC1CCN(c2ncnc3cc(C(=O)NC4CCNCC4)ccc23)CC1`?
**A.** IC50 [6]: > 200 µM; IC50 [7]: > 200 µM; IC50 [8]: > 200 µM

**Q.** With `NCc1ccc(Nc2ncnc3cc(C(=O)NC4CCNC4)ccc23)cc1` (configuration not stated) as the compound, how does the IC50 [7] read?
**A.** 47 µM

**Q.** What about the IC50 [8] of the same compound?
**A.** 63 µM

**Q.** For `CNCCNc1cccc(-n2nc(C(F)(F)F)cc2C(=O)NCc2ccccc2OC)c1`, which IC50 [20] is on record?
**A.** 0.005 µM

**Q.** For `CNCCNC(=O)c1ccc2c(Nc3ccc(CN)cc3)ncnc2c1`, which IC50 [7] is on record?
**A.** 23 µM

**Q.** And the inhibition [15]?
**A.** 15%

**Q.** And the inhibition [16]?
**A.** < 25%

**Q.** With `NC1CCN(c2ncnc3cc(C(=O)NC4CCNC4)ccc23)CC1` (configuration not stated) as the compound, how does the IC50 [7] read?
**A.** 16 µM

**Q.** What about the IC50 [8] of the same compound?
**A.** 60 µM

**Q.** Which IC50 [7] does the source give for `NCc1ccc(NC(=O)c2ccc3c(N4CCC(N)CC4)ncnc3c2)cc1` here?
**A.** 7 µM

**Q.** And the IC50 [8]?
**A.** 8 µM
